In patent publication US10046050B2, “Targeting immunotherapy for amyloidosis” (UNIVERSITY OF TENNESSEE RESEARCH FOUNDATION, priority 2014, dated 2018):

Key:
mAb 7D8 = assay: ELISA binding of 7D8 to peptopes dried on microplates; details: both assays
Method: Peptides (p75-78 and control reagents; peptide 39 [CGGHEDT] (SEQ ID NO: 54), peptide 41 [CGGHEDTMADQE] (SEQ ID NO: 55) and peptide p5 (SEQ ID NO: 1), were prepared at 1 μg/ml in PBS and 50 μl was added to each well of 1 96-well microplate (Costar EIA/RIA high binding). The peptides were dried onto the well at 37° C. overnight. Sample wells were blocked for 1 h by addition of 200 μL of 1% BSA in PBS. Primary antibodies (7D8 or biotinylated 7D8) and secondary antibodies (biotinylated goat anti mouse) were added in 100 μL of a diluent of 1% BSA and 0.05% tween 20 in PBS. The 7D8 primary antibody was tested with a 1:2 dilution series beginning at 50 nM. A 1/3000 dilution of the secondary biotinylated goat anti-mouse IgG antibody (Sigma) was added for 1 h and the microplate washed. When the biotinylated 7D8 mAb was used the secondary antibody step was omitted. Binding was visualized by addition of a 1/1000 dilution of europium/streptavidin (Perkin Elmer) for 1 h and developed with enhancement solution (Perkin Elmer) before quantifying the signal using a time-resolved fluorescence plate reader (Wallac).

human ATTR amyloid = assay: Immunohistochemistry of biotinyl-7D8 on formalin-fixed tissue sections; type: binding; details: label = pre-treatment peptide, or 7D8 alone
Method: (§1) The binding of biotinylated 7D8 mAb with autopsy-derived, formalin-fixed, paraffin-embedded tissue sections containing, ATTR, ALκ or ALλ was assessed immunohistochemically. Consecutive tissue sections were stained with: Congo red; biotinylated 7D8 alone; 7D8 with the control peptide p5; or, 7D8 mAb with peptope p75 pretreatment. Briefly, six μm-thick tissue sections were subjected to antigen retrieval by incubation in CitraPlus solution (BioGenex, San Ramon, Calif.) for 30 min at 90° C. Unlabeled peptope p75 was added to the tissue at ˜3 μg/mL and incubated overnight at 4° C. Unbound reagent was removed by washing in PBST for 30 min. Tissues sections (with or without peptope pretreatment) were immunostained by addition of 3 μg/mL biotinylated 7D8 mAb. Slides were developed by addition of streptavidin-HRP (Vectastain Elite ABC kit, Vector Labs) followed by 3,3′-diaminobezidene (Vector Labs) and examined using a Leica DM500 microscope.

human Den ALλ amyloid = assay: as above; type: binding; details: thyroid, label = pre-treatment peptide, or 7D8 alone
Method: as §1

human Tal ALκ amyloid = assay: as above; type: binding; details: kidney, label = pre-treatment peptide, or 7D8 alone
Method: as §1

[1] = target: T1, human transthyretin (TTR) amyloid-laden tissue (Homo sapiens, UniProt P02766); assay: Pre-targeting immunohistochemistry on ATTR-laden tissue sections; type: binding
T1 construct: from tissue
Method: The pre-targeting efficacy of peptide p5+14 in conjunction with mAb clones 4, 5, 12, or 13 was further evaluated using human ATTR-laden formalin-fixed paraffin embedded tissue sections. More particularly, six micrometer-thick sections, cut from formalin-fixed, paraffin embedded human transthyretin (TTR) amyloid-laden tissue, were subjected to antigen retrieval by incubation with CitraPlus (BioGenex, San Ramon, Calif.) for 30 min at 90° C. Peptide p5+14 was added to the tissue at ˜3 μg/mL (30× molar excess over mAb) and incubated overnight at 4° C. Unbound reagent was removed by washing in PBST for 30 min. Tissues (with or without p5+14) were immunostained with a 3 μg/mL solution of biotinylated anti-peptide mAb (clones 4, 5, 12, or 13). Slides were developed by addition of streptavidin-HRP (Vectastain Elite ABC kit, Vector Labs) followed by 3,3′-diaminobezidene (Vector Labs).
By way of positive control, a biotinylated-p5+14 peptide (without mAb) was used to directly stain TTR amyloid in this tissue (red arrows, below), as described above.
To confirm the presence and distribution of amyloid in the tissue a consecutive slide was stained with Congo red. Briefly, tissues were incubated in Congo red solution (0.8% w/v Congo red, 0.2% KOH w/v in 80% ethanol) for 1 h at RT. Sections were then washed in water and counterstained by suspending in Mayer's hematoxylin for 2 min. […]

[2] = system: synthetic and naturally-occurring amyloid samples; assay: Pull down assay of ^125I-labeled peptides; type: binding
Method: To evaluate the binding of p66 and p5+14 to synthetic and naturally-occurring amyloid, peptides p66 or p5+14 were radiolabeled with iodine-125 (I-125, ^125I) using oxidation with chloramine T (1 mg/ml in water freshly made. Free 1-125 was removed from the reaction mixture by size exclusion chromatography using a Sephadex G-25 solid phase and a 0.1% (w/v) gelatin in PBS mobile phase. Fractions of ˜250 μl were collected and the radioactivity in each measured using a gamma counter (Packard Cobra II auto-gamma counter). Peptide fractions with peak radioactivity were pooled and used for the “pull-down” assays.
For the pull down assay, ^125I-labeled peptide binding to murine: (m) AA and wild type (WT) liver homogenates (25 μl); rVλ6Wil (AL), Aβ(1-40) and islet amyloid polypeptide (IAPP) synthetic fibrils (25 μg), and; transthyretin-associated (ATTR), ALκ4-Cab and ALλ1-Ship human amyloid extracts (50 μg). The ^125I-peptides were prepared in PBST (0.15 M NaCl) or PBST with 1 M NaCl. Ten μl (˜5 ng, ˜100,000 counts per min [cpm]) of the ^125I-peptide solution was added to each test sample in a 200 μl volume. The reaction mixtures were rotated for 1 h at RT, then centrifuged twice at 16,000×g for 10 min. After each step the supernatants were removed and collected in test tubes. The pellets, obtained following the second spin were resuspended in PBST. The radioactivity in both the supernatant and pellet samples were measured using a Packard Cobra II auto-gamma counter. The bound peptide, expressed as % total was calculated according to: Bound peptide (% total)=(Pellet cpm)/(Pellet cpm+Supernatant cpm)

AA amyloid = target: T2, AA amyloid (Mus musculus, UniProt P05367); assay: In vivo pre-targeting of ^125I-11-1F4 to systemic AA amyloid; design: species or system mice; details: 24 h post injection of 11-1F4 mAb; peptide given 24 h before mAb
T2 construct: from tissue; host or cells: organs of living H2-L^d-huIL-6 Tg Balb/c mice after AEF injection
T2 sequence (P05367 20-94 limits assumed): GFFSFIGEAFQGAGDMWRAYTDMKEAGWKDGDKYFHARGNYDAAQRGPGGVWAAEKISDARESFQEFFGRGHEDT
Method: Systemic visceral AA amyloidosis was induced in H2-L^d-huIL-6 Tg Balb/c transgenic mice that constitutively express the human interleukin-6 transgene, by iv injection of 10 μg of purified, splenic AA amyloid (amyloid enhancing factor; AEF) in 100 μL of sterile phosphate-buffered saline (PBS). Peptide p66 pre-targeting of ^125I-11-1F4 was evaluated in mice at 3-4 wk post AEF injection when amyloid load was modest.
Three cohorts of 3 mice, each received ˜400 μg of unlabeled peptide p66, and a second group of 3 cohorts were given peptide p5+14 as a control. Twenty-four hours after the peptide injection all mice were administered ˜150 μCi (˜20 μg) of ^125I-11-1F4 IV in the lateral tail vein. One group of p66 mice (n=3) and one group of p5+14 control mice (n=3) were euthanized at 24, 48 and 72 h post injection of 11-1F4 mAb and the organs harvested at necropsy for fixation, followed by microautoradiographic and immunohistochemical analyses.
For autoradiography, 6-μm-thick sections were cut from formalin-fixed, paraffin-embedded blocks, containing tissues from mice that had received […]. The sections were placed on Plus microscope slides (Fisher Scientific), dipped in NTB-2 emulsion (Eastman Kodak), stored in the dark, and developed after a 4 day exposure. Each section was counterstained with hematoxylin and eosin.
Formalin-fixed paraffin embedded tissue sections, from mice treated with p66 peptope or peptide p5+14 were subjected to antigen retrieval using citrate buffer (pH 6; Dako) 30 min at 90° C. The tissue was then blocked with hydrogen peroxide, casein, and avidin and biotin, per manufacturer's instructions. The biotinylated peptide-reactive mAb (clone 12-3 [described above]) was then added (1.6 μg/mL in PBS) an the samples incubated for 2 h at RT, O/N at 4° C., followed by another 2 h period at RT. […]
The presence of macrophages was detected by staining with mAb Iba-1 (1:8000 diln) followed by addition of biotinylated rabbit anti-mouse secondary reagent (Vector Rabbit Elite kit). […]

Substance	binding of 7D8 and biotinyl-7D8 (mAb 7D8)	immunohistochemical staining with biotinyl-7D8 (human ATTR amyloid; Gre ATTR, esophagus)	immunohistochemical staining with biotinyl-7D8 (human ATTR amyloid; Gre ATTR, heart)	immunohistochemical staining with biotinyl-7D8 (human ATTR amyloid; Ken ATTR, heart)	immunohistochemical staining with biotinyl-7D8 (human ATTR amyloid; Sno ATTR, heart)	immunohistochemical staining with biotinyl-7D8 (human Den ALλ amyloid)	immunohistochemical staining with biotinyl-7D8 (human Tal ALκ amyloid)	staining of ATTR amyloid by directly biotinylated peptide (no mAb) ([1]; compared with Congo red)	staining of ATTR amyloid, non-biotinylated peptide pre-targeting then biotinylated anti-peptide mAb ([1]; peptide ˜3 μg/mL, mAb clones 4, 5, 12, or 13 at 3 μg/mL)	binding of ^125I-peptide to amyloid samples ([2]; 0.15 M NaCl)	binding of ^125I-peptide to amyloid samples ([2]; 1.0 M NaCl)	co-localization of ^125I-11-1F4 with AA amyloid after peptide pre-targeting (AA amyloid)
KAQKAQAKQAKQAQKAQKAQAKQAKQ (KAQKAQAKQAKQAQKAQKAQAKQAKQ; Peptide p5)	no binding	decreased	partially inhibited	background 7D8 staining was diminished	background 7D8 staining was diminished	inhibited this effect	inhibited this effect	–	–	–	–	–
KAQKAQAKQAKQAQKAQKAQAKQAKQAQKAQKAQAKQAKQ (KAQKAQAKQAKQAQKAQKAQAKQAKQAQKAQKAQAKQAKQ; Peptide p5+14)	–	–	–	–	–	–	–	co-localizes with amyloid deposits	the amyloid was readily visualized	bound equally well	bound equally well	little evidence of ^125I-11-1F4 co-localized with the amyloid
